Consider 11 compounds from patent US10426751B2, “Allosteric activators for treatment of phenylketonuria” (MCMASTER UNIVERSITY, priority 2015, dated 2019).

Residue numbers refer to the chain shown, from its start. Entries after “also recorded” stand apart in the source; their conditions may differ.

Test [1] addresses T1, WT-PAH (Homo sapiens, UniProt P00439).
T1 construct: made in house; the paragraph itself says 'eukaryotic cell cultures' (pMAL vector, Martinez laboratory, University of Bergen)
T1 sequence (P00439 1-452): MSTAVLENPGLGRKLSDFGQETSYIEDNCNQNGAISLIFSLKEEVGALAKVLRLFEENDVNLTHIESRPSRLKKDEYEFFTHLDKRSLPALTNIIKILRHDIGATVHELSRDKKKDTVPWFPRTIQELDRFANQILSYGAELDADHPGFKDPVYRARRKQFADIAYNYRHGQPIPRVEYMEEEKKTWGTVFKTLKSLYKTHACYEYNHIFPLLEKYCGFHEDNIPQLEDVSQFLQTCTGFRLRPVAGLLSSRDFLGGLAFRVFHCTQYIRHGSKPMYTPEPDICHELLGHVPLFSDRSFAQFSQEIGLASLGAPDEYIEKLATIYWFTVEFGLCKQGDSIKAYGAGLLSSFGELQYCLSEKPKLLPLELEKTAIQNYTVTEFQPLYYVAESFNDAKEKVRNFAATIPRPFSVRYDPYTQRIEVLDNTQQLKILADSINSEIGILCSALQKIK
The experiment in a line: Primary screen (READ): ligand-induced stabilization of PAH activity in 8 M urea, Tyr formation by CE-UV. It counts as biochemical. The conditions noted are these: ligand 20 μM; for stabilization / enhancement effect on PAH activity (in words): denaturing conditions. The protocol: (§1) Tetrameric human phenylalanine hydroxylase (PAH) enzyme kinetic assays were performed off-line under standardized conditions prior to quantification of Tyr formation by CE with UV detection. Enzyme assays were performed by first mixing together Phe (1 mM), catalase (100 nM) and PAH (0.25 μM/subunit) in a reaction buffer (20 mM HEPES and 200 mM NaCl, pH 7.0) that were equilibrated at 25° C. for 4 min. Then, ferrous (Fe^2+) ammonium sulfate (100 μM) was added to the solution for 1 min and the reaction was subsequently initiated by addition of BH4 ([…]) with DTT (5 mM) using a total volume of 100 μL. The reaction mixture was then vortexed for 60 s followed by sonication for 2 min prior to centrifugation for 10 s at 4 g and storage in a refrigerator (+4° C.). An aliquot (20 μL) was withdrawn from the quenched enzyme reaction and placed in a micro vial containing Me-Tyr as IS (100 μM) prior to CE analysis. The stability of the quenched enzyme reaction was confirmed by intermittent analysis of PAH activity over 6 h at room temperature, and no significant changes in the Tyr/IS or Phe/Tyr response ratio were measured. Enzymatic reactions were performed for both WT-PAH and two PAH mutants by pre-equilibrating each ligand for 10 min prior to addition of ferrous ion and BH4/DDT as described in enzyme reaction protocol in order to assess for ligand-induced PAH inhibition or activation.
Unlike thermal stability assays that can induce protein aggregation, chemical denaturants are more suitable as perturbants to promote unfolding and enzyme inactivation while solubilizing multimeric proteins. In this context, restoration of enzyme activity upon denaturation (READ) was first introduced to characterize PCs that stabilize yet enhance the activity of a lysosomal enzyme, β-glucocerebrosidase (GCase). Herein, READ was modified, further optimized and validated for primary screening of PCs for the cytosolic enzyme (PAH) using a chemical library containing structurally unique compounds with drug-like activity. For instance, the primary screen was used to measure ligand-induced stabilization of PAH by extrinsic small molecules that impart greater resistance to urea unfolding as compared to ligand-free apo-enzyme conditions. PAH activity was first examined as a function of urea concentration (0 to 8 M) and pre-equilibration time (10 min to 2 hr) in order to determine optimum conditions where residual enzyme activity was largely attenuated below 10% due to protein unfolding. Protein unfolding was performed in triplicate offline with the enzyme reaction buffer (20 mM HEPES and 200 mM NaCl, pH 7.0) using tetrameric human PAH (1 μM and/or 0.1 μM) or mutant PAH (1 μM and/or 0.1 μM) incubated 10 min in 0 M or 8 M urea in the presence or absence of ligand (20 μM). Dose-response studies (0, 2.0 and 20 μM) were subsequently performed in triplicate on screen-positive compounds using re-synthesized ligands in order to further validate initial screen results. In all cases, quenched enzyme reactions were processed as described previously prior to CE analysis. PAH activity measurements based on Tyr formation at 8M urea with the presence or absence of PC were normalized to 0 M urea for each aliquot enzyme reaction to minimize long-term variation, which also enables direct comparison of the ligand-induced stabilization activity under denaturing conditions (8M urea) while confirming inhibition and activation effects for ligands under native conditions (0 M urea).

The target of test [2] is T1, WT-PAH. The test is described as follows: Chaperone (refolding) assay: PAH activity after dilution from 6.0 M to 0.5 M GndCl. It counts as biochemical. The conditions noted are these: for chaperone activity upon refolding (in words): ligand 20 μM. The protocol:
(§2) For instance, a recovery of 50% of residual enzyme activity was achieved without ligand when PAH was incubated in 8.0 M urea after its dilution to 0.5 M urea to trigger protein refolding. In order to further reduce enzyme reversibility, the recovery of PAH activity was subsequently assessed when it was incubated using 6.0 M GndCl for 10 min and subsequently diluted to 0.5 M GndCl in the presence or absence of screen-positive ligands (20 μM) in enzyme reaction buffer with PAH activity measurements performed by CE as described previously. […] Two lead compounds and several analogs of SA were subsequently tested using two different mutants of PAH (I65T and R261Q) without chemical denaturants after the two-tiered screening.

Test [3] concerns the target T1, WT-PAH. The experiment in a line: PAH enzyme activity under native conditions (0 M urea), ligand-induced inhibition or activation. It is filed as biochemical. The conditions noted are these: ligand 20 μM. The protocol: as §1, with “An aliquot (20 μL) was withdrawn from the quenched enzyme reaction and placed in a micro vial containing Me-Tyr as IS (100 μM) prior to CE analysis.” left out, “Enzymatic reactions were performed for both WT-PAH and two PAH mutants by pre-equilibrating each ligand for 10 min prior to addition of ferrous ion and BH4/DDT as described in enzyme reaction protocol in order to assess for ligand-induced PAH inhibition or activation.” left out
Unlike thermal stability assays that can induce protein aggregation, chemical denaturants are more suitable as perturbants to promote unfolding and enzyme inactivation while solubilizing multimeric proteins. In this context, restoration of enzyme activity upon denaturation (READ) was first introduced to characterize PCs that stabilize yet enhance the activity of a lysosomal enzyme, β-glucocerebrosidase (GCase). […]

The target of the next test is T2, R261Q PAH mutant (Homo sapiens, UniProt P00439, R261Q).
T2 construct: made in house; the paragraph itself says 'eukaryotic cell cultures' (pMAL vector)
T2 sequence (P00439 1-452 R261Q): T1 sequence (P00439 1-452) with R261Q
The experiment in a line: PKU-mutant activity enhancement without chemical denaturants, CE-UV. It is filed as biochemical. As to conditions: ligand 20 μM, no denaturant. The protocol: Expression of recombinant human WT-PAH and two PAH mutants ([…]) as fusion protein with maltose-binding protein in […] using pMAL expression vector was performed by the Martinez laboratory at the University of Bergen as described in Svebak et al., Biochem. J., 1995, 306, 589-597. Briefly, purification of the fusion proteins expressed in the pMAL vector system was performed using affinity chromatography followed by size-exclusion chromatography to remove low molecular weight components. Subsequently, the fusion proteins were cleaved by the restriction protease factor Xa and then phosphorylated by cyclic adenosine monophosphate (cAMP)-dependent protein kinase. The two clinically relevant PAH mutants, I65T and R261Q comprise single-point mutations in the regulatory and catalytic domain, respectively which are associated with highly variable phenotypes ranging from mild to classical PKU. For instance, patients with R261Q genotypes are reported to have inconsistent responses to BH4 therapy. In this work, I65T and R261Q PAH mutants were measured to have residual catalytic activities of (35±1)% and (5±0.5)% relative to WT PAH under standardized conditions (i.e., enzyme concentrations, assay buffer etc.), respectively. Stock solutions of WT-PAH and PAH mutants were prepared in enzyme reaction buffer (20 mM HEPES pH 7.0, 200 mM NaCl), and divided into separate 10 μL aliquots in 0.5 mL sterilized centrifuge tubes prior to storage at −80° C. Note that all enzyme assays were performed on aliquots of frozen enzymes thawed slowly in the fridge prior to daily use.
as §1, §2

For a further test, the system named is beta-amyloid peptide. The conditions noted are these: cited from earlier work.
A further test has as its system Plasmodium falciparum. The conditions noted are these: read-out: IC50 (competitive inhibitor); cited from earlier work.

In the case of `OCCN1CCN(CCCN2c3ccccc3Sc3ccc(C(F)(F)F)cc32)CC1` [fluphenazine], the “stabilization / enhancement effect on PAH activity (in words)” value (from here on “stabilization / enhancement effect”) on WT-PAH [1] is “no enhancement effect”.

Turning to `O=C(O)C1=C[C@@H](O)[C@@H](O)[C@H](O)C1` [SA, (3R,4S,5R)-3,4,5-trihydroxycyclohex-1-ene-1-carboxylic acid], the “chaperone activity upon refolding (in words)” value on WT-PAH [2] is listed as “significantly restored”. Also, the “residual activity of WT-PAH after refolding” value at WT-PAH [2] (without ligand (7±0.5) %) is on record as roughly 38±2%. Also, at WT-PAH [3], the “inhibition or activation of WT-PAH under native conditions (in words)” value is recorded as “weak activation effects; also recorded: lack of SA inhibitory effects”. For the same compound, the “PAH residual activity (% of WT-PAH)” value at WT-PAH [1] (8 M urea, ligand-free enzyme (7±0.5) %) is reported as 16%. Also, the results for the “activity enhancement of R261Q PAH mutant” value at R261Q PAH mutant and on R261Q PAH mutant (listed as HCH) were 3-5 fold and 5 fold, respectively.

On to `COc1ccc([C@@H]2Sc3ccccc3N(CCN(C)C)C(=O)[C@@H]2OC(C)=O)cc1` [diltiazem], for which the “stabilization / enhancement effect” value at WT-PAH [1] is “no enhancement effect”.

In the case of `Nc1c(Br)cc(Br)cc1CN[C@H]1CC[C@H](O)CC1` [ambroxol], the “stabilization / enhancement effect” value at WT-PAH [1] is on record as “no enhancement effect”.

In the case of `CCOC(=O)C1=C[C@@H](O)[C@@H](O)[C@H](O)C1` [ESA, ethoxyshikimate], the “chaperone activity upon refolding (in words)” value on WT-PAH [2] is “abolishes the chaperone activity”.

For `O=C(O)c1cc(O)c(O)c(O)c1` [GA, gallic acid], the “chaperone activity upon refolding (in words)” value on WT-PAH [2] was “destabilizes and reduces the activity of WT-PAH upon refolding”. Also, the “oligomerization of beta-amyloid peptide (in words)” value with beta-amyloid peptide is reported as “inhibits oligomerization of beta-amyloid peptide”.

One may read the IC50 as the concentration that gives 50% inhibition. In the case of `O=C(O)C1=CC(O)C(O)C(O)C1F` (stereo not drawn) [6-fluoro-shikimate], the IC50 with Plasmodium falciparum was 15 µM.

Take `O=C(O)C1(O)C[C@@H](O)C(O)[C@H](O)C1` (stereo partly drawn) [QA, D-quinic acid]: the “chaperone activity upon refolding (in words)” value at WT-PAH [2] is listed as “significantly restored; also recorded: chaperone activity”. For the same compound, the “stabilization / enhancement effect” value on WT-PAH [1] was “exhibits PAH stabilization”.

Consider `O[C@H]1[C@H](O)[C@@H](O)[C@H](O)[C@@H](O)[C@H]1O` [myo-inositol], for which the “stabilization / enhancement effect” value at WT-PAH [1] is “no significant activity”.

Regarding `OC[C@H]1CNC[C@@H](O)[C@@H]1O` [isofagomine], on WT-PAH [1], the “stabilization / enhancement effect” value is recorded as “no enhancement effect”.

`O=C(O)C1=CC(=O)[C@@H](O)[C@H](O)C1` [DSA, 3-dehydroshikimic acid]: on WT-PAH [2], the “chaperone activity upon refolding (in words)” value is “abolishes the chaperone activity”.
